We go through 17 compounds from PubChem BioAssay AID248 (DTP/NCI, 2004).

SMILES strings stand for the structures. Several values for one entry are separate records, joined by “and”; a condition that tells them apart may be missing. Equal entries are not always repeated. Inconclusive results and toxic doses are left out. Peptide text beside a SMILES is read from it. * marks the point of attachment. Tos = Cc1ccc(S(=O)(=O)*)cc1

The subject of this test is L1210 leukemia ip in BDF1 mice, survival T/C. Kind of test: NCI In Vivo Anticancer Drug Screen. Data for tumor model L1210 Leukemia (intraperitoneal) in B6D2F1 (BDF1) mice. Particulars: endpoint: mean survival time, higher = longer survival. The gist of the method: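 Tumor was transplanted into mice, which were then dosed with test compound or vehicle alone. Survival was recorded for each group, and the treated figure was expressed relative to the control figure.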

[1] abbreviates: dose: 100.0 mg/kg/injection, schedule: Q01DX009 (ip), vehicle: saline with Tween-80.
Setting [2] is: dose: 200.0 mg/kg/injection, schedule: Q01DX009 (ip), vehicle: saline with Tween-80.
Setting [3] is: dose: 100.0 mg/kg/injection, schedule: Q04DX002 (ip), vehicle: Klucel (hydroxypropylcellulose) (HPC).
Where [4] appears, read: dose: 200.0 mg/kg/injection, schedule: Q04DX002 (ip), vehicle: Klucel (hydroxypropylcellulose) (HPC).
[5] abbreviates: dose: 100.0 mg/kg/injection, schedule: Q01DX009 (ip), vehicle: saline.
Setting [6] is: dose: 200.0 mg/kg/injection, schedule: Q01DX009 (ip), vehicle: saline.
The mark [7] stands for this setting: dose: 400.0 mg/kg/injection, schedule: Q01DX009 (ip), vehicle: saline.
[8] abbreviates: dose: 100.0 mg/kg/injection, schedule: Q04DX003 (ip), vehicle: Klucel (hydroxypropylcellulose) (HPC).
[9] abbreviates: dose: 200.0 mg/kg/injection, schedule: Q04DX003 (ip), vehicle: Klucel (hydroxypropylcellulose) (HPC).

For `COc1cc(C=Nc2cc(Cl)cc(Cl)c2)ccc1N(CCCl)CCCl`, the T/C is, setting by setting: (dose: 10.5 mg/kg/injection, schedule: Q01DX015 (ip), vehicle: carboxymethylcellulose (CMC)) 114 % of control and 116 % of control; (dose: 18.0 mg/kg/injection, schedule: Q01DX015 (ip), vehicle: carboxymethylcellulose (CMC)) 113 % of control and 117 % of control; (dose: 30.0 mg/kg/injection, schedule: Q01DX015 (ip), vehicle: carboxymethylcellulose (CMC)) 123 % of control; (dose: 50.0 mg/kg/injection, schedule: Q01DX001 (ip), vehicle: carboxymethylcellulose (CMC)) 123 % of control; (dose: 50.0 mg/kg/injection, schedule: Q01DX001 (ip), vehicle: other) 105 % of control; (dose: 50.0 mg/kg/injection, schedule: Q01DX015 (ip), vehicle: carboxymethylcellulose (CMC)) 122 % of control. Moreover, the T/C reads like this: (dose: 100.0 mg/kg/injection, schedule: Q01DX001 (ip), vehicle: carboxymethylcellulose (CMC)) 157 % of control; (dose: 100.0 mg/kg/injection, schedule: Q01DX001 (ip), vehicle: other) 118 % of control; (dose: 150.0 mg/kg/injection, schedule: Q01DX001 (ip), vehicle: carboxymethylcellulose (CMC)) 116 % of control; (dose: 200.0 mg/kg/injection, schedule: Q01DX001 (ip), vehicle: carboxymethylcellulose (CMC)) 123 % of control; (dose: 200.0 mg/kg/injection, schedule: Q01DX001 (ip), vehicle: other) 123 % of control; (dose: 400.0 mg/kg/injection, schedule: Q01DX001 (ip), vehicle: other) 111 % of control. The T/C (dose: 800.0 mg/kg/injection, schedule: Q01DX001 (ip), vehicle: other) was 120 % of control.
As to `O=C(O)COc1ccccc1CO`, the T/C reads like this: (dose: 100.0 mg/kg/injection, schedule: Q01DX001 (ip), vehicle: saline with Tween-80) 91 % of control; under setting [1], 88 % of control; (dose: 200.0 mg/kg/injection, schedule: Q01DX001 (ip), vehicle: saline with Tween-80) 94 % of control; under setting [2], 94 % of control; (dose: 400.0 mg/kg/injection, schedule: Q01DX001 (ip), vehicle: saline with Tween-80) 92 % of control; (dose: 400.0 mg/kg/injection, schedule: Q01DX009 (ip), vehicle: saline with Tween-80) 91 % of control.
Regarding `O=CN(O)CC(=O)O.[Ni]`, the T/C was 105 % of control (dose: 6.25 mg/kg/injection, schedule: Q01DX009 (ip), vehicle: saline) and 109 % of control (dose: 12.5 mg/kg/injection, schedule: Q01DX009 (ip), vehicle: saline).
Consider `Cc1cccc(C(C#N)(CCC#N)N2CCOCC2)n1` (centres undefined), for which the T/C by setting is: (dose: 50.0 mg/kg/injection, schedule: Q01DX009 (ip), vehicle: saline with Tween-80) 91 % of control; under setting [1], 98 % of control; under setting [2], 94 % of control.
With `O=C(CC(C(=O)c1ccccc1)N1CC1)c1ccccc1` (centres undefined), the T/C is 91 % of control (dose: 50.0 mg/kg/injection, schedule: Q01DX009 (ip), vehicle: saline sonified); 96 % of control (dose: 50.0 mg/kg/injection, schedule: Q04DX003 (ip), vehicle: saline sonified); 94 % of control (dose: 100.0 mg/kg/injection, schedule: Q01DX009 (ip), vehicle: saline sonified); 92 % of control (dose: 100.0 mg/kg/injection, schedule: Q04DX003 (ip), vehicle: saline sonified); 97 % of control (dose: 200.0 mg/kg/injection, schedule: Q04DX003 (ip), vehicle: saline sonified).
Consider `Cc1ccc(C(=O)N/N=C/c2ccc3ccccc3c2)cc1`, for which the T/C is, setting by setting: under setting [3], 95 % of control; under setting [4], 103 % of control; (dose: 400.0 mg/kg/injection, schedule: Q04DX002 (ip), vehicle: Klucel (hydroxypropylcellulose) (HPC)) 95 % of control.
As to `Cc1ccc(S(=O)(=O)NCC(=O)NCC(=O)O)cc1` (Tos-Gly-Gly-OH), the T/C was 105 % of control under setting [5], 94 % of control under setting [6] and 96 % of control under setting [7].
For the compound `CCCCCCC/C(=N\N=C(N)N)c1ccc(O)cc1`, the T/C (dose: 15.0 mg/kg/injection, schedule: Q01DX Z (ip), vehicle: carboxymethylcellulose (CMC)) is 93 % of control; the T/C (dose: 15.0 mg/kg/injection, schedule: Q01DX Z (oral), vehicle: carboxymethylcellulose (CMC)) is 117 % of control; the T/C (dose: 30.0 mg/kg/injection, schedule: Q01DX Z (ip), vehicle: carboxymethylcellulose (CMC)) was 87 % of control; the T/C (dose: 30.0 mg/kg/injection, schedule: Q01DX Z (oral), vehicle: carboxymethylcellulose (CMC)) is 106 % of control; the T/C (dose: 60.0 mg/kg/injection, schedule: Q01DX Z (oral), vehicle: carboxymethylcellulose (CMC)) was 97 % of control and 103 % of control; the T/C (dose: 120.0 mg/kg/injection, schedule: Q01DX Z (oral), vehicle: carboxymethylcellulose (CMC)) is 112 % of control and 90 % of control. Further, the T/C runs as follows: (dose: 240.0 mg/kg/injection, schedule: Q01DX Z (oral), vehicle: carboxymethylcellulose (CMC)) 94 % of control and 95 % of control; (dose: 480.0 mg/kg/injection, schedule: Q01DX Z (oral), vehicle: carboxymethylcellulose (CMC)) 88 % of control and 90 % of control.
In the case of `COc1ccc(C(=O)Nc2ccccc2)cc1NC(=S)Nc1ccccc1`, the T/C under setting [3] is 95 % of control and the T/C under setting [4] is 98 % of control.
In the case of `O=C(NCCCCCCCCCCNC(=O)Nc1cccc(C2=NCCN2)c1)Nc1cccc(C2=NCCN2)c1`, the T/C (dose: 10.0 mg/kg/injection, schedule: Q01DX Z (ip), vehicle: water) was 106 % of control and the T/C (dose: 20.0 mg/kg/injection, schedule: Q01DX Z (ip), vehicle: water) was 90 % of control.
With `C#CC(C)(C)OC(C)=O`, the T/C is 99 % of control (dose: 100.0 mg/kg/injection, schedule: Q01DX001 (ip), vehicle: Klucel (hydroxypropylcellulose) (HPC)); 92 % of control (dose: 100.0 mg/kg/injection, schedule: Q04DX003 (ip), vehicle: saline with Tween-80); 99 % of control (dose: 200.0 mg/kg/injection, schedule: Q01DX001 (ip), vehicle: Klucel (hydroxypropylcellulose) (HPC)); 103 % of control (dose: 200.0 mg/kg/injection, schedule: Q04DX003 (ip), vehicle: saline with Tween-80); 104 % of control (dose: 400.0 mg/kg/injection, schedule: Q01DX001 (ip), vehicle: Klucel (hydroxypropylcellulose) (HPC)); 92 % of control (dose: 400.0 mg/kg/injection, schedule: Q04DX003 (ip), vehicle: saline with Tween-80).
On to `Cc1ccc(C(c2ccc(C)c(C)c2)C(O)C(O)C(O)CO)cc1C` (centres undefined), for which the T/C (dose: 100.0 mg/kg/injection, schedule: Q01DX001 (ip), vehicle: saline) was 94 % of control and 100 % of control; the T/C (dose: 200.0 mg/kg/injection, schedule: Q01DX001 (ip), vehicle: saline) is 102 % of control and 96 % of control; the T/C (dose: 400.0 mg/kg/injection, schedule: Q01DX001 (ip), vehicle: saline) is 97 % of control and 96 % of control.
Consider `Cc1cc(C)nc(NC(=O)COc2ccc(Cl)cc2)c1`, for which the T/C reads like this: (dose: 50.0 mg/kg/injection, schedule: Q01DX009 (ip), vehicle: Klucel (hydroxypropylcellulose) (HPC)) 97 % of control; (dose: 100.0 mg/kg/injection, schedule: Q01DX009 (ip), vehicle: Klucel (hydroxypropylcellulose) (HPC)) 100 % of control; under setting [8], 101 % of control; (dose: 200.0 mg/kg/injection, schedule: Q01DX009 (ip), vehicle: Klucel (hydroxypropylcellulose) (HPC)) 93 % of control; under setting [9], 97 % of control.
`CC(Br)(CBr)CCC(C)(Br)CBr` (centres undefined): the T/C under setting [8] was 94 % of control; the T/C under setting [9] is 96 % of control; the T/C (dose: 400.0 mg/kg/injection, schedule: Q04DX003 (ip), vehicle: Klucel (hydroxypropylcellulose) (HPC)) is 91 % of control.
In the case of `CNCCO`, the T/C under setting [5] is 97 % of control; the T/C (dose: 100.0 mg/kg/injection, schedule: Q04DX003 (ip), vehicle: saline) is 96 % of control; the T/C under setting [6] is 92 % of control; the T/C (dose: 200.0 mg/kg/injection, schedule: Q04DX003 (ip), vehicle: saline) was 98 % of control; the T/C under setting [7] was 97 % of control; the T/C (dose: 400.0 mg/kg/injection, schedule: Q04DX003 (ip), vehicle: saline) is 102 % of control.
Consider `CC(=O)SC1CS(=O)(=O)CC1SC(C)=O` (centres undefined), for which the T/C by setting is: under setting [8], 93 % of control; under setting [9], 101 % of control.
As to `Clc1ccc(CNc2ccc(Cl)c(Cl)c2)cc1`, the T/C reads like this: (dose: 200.0 mg/kg/injection, schedule: Q04DX002 (ip), vehicle: saline with Tween-80) 92 % of control; (dose: 400.0 mg/kg/injection, schedule: Q04DX002 (ip), vehicle: saline with Tween-80) 89 % of control.
